Tests used:
[1] = biological target: Sodium-dependent noradrenaline transporter (Homo sapiens) (UniProt P23975); assay: NETRANS/H Eurofins-Panlabs selectivity data (BI); conditions: Compound concentration 10.0 uM
[2] = biological target: Homeodomain-interacting protein kinase 3 (Homo sapiens) (UniProt Q9H422); conditions: Compound concentration 1000.0 nM
[3] = biological target: Phosphatidylinositol 3-kinase catalytic subunit type 3 (Homo sapiens) (UniProt Q8NEB9); conditions: Compound concentration 1000.0 nM
[4] = biological target: Mitogen-activated protein kinase kinase kinase kinase 1 (Homo sapiens) (UniProt Q92918); conditions: Compound concentration 1000.0 nM
[5] = biological target: Serine/threonine-protein kinase Sgk3 (Homo sapiens) (UniProt Q96BR1); conditions: Compound concentration 1000.0 nM
[6] = biological target: RAF proto-oncogene serine/threonine-protein kinase (Homo sapiens) (UniProt P04049); conditions: Compound concentration 1000.0 nM
[7] = biological target: Dual specificity mitogen-activated protein kinase kinase 7 (Homo sapiens) (UniProt O14733); conditions: Compound concentration 1000.0 nM
[8] = biological target: Serine/threonine-protein kinase 17B (Homo sapiens) (UniProt O94768); conditions: Compound concentration 1000.0 nM
[9] = biological target: Beta-2 adrenergic receptor (Rattus norvegicus) (UniProt P10608); assay: BETA/R Eurofins-Panlabs selectivity data (BI); conditions: Compound concentration 10.0 uM
[10] = biological target: Mitogen-activated protein kinase kinase kinase 10 (Homo sapiens) (UniProt Q02779); conditions: Compound concentration 1000.0 nM
[11] = biological target: 5-hydroxytryptamine receptor 2C (Homo sapiens) (UniProt P28335); conditions: Compound concentration 10.0 uM
[12] = biological target: Serine/threonine-protein kinase Nek7 (Homo sapiens) (UniProt Q8TDX7); conditions: Compound concentration 1000.0 nM
Chain of Serine/threonine-protein kinase Nek7 (Homo sapiens) (Q8TDX7 whole entry, looked up): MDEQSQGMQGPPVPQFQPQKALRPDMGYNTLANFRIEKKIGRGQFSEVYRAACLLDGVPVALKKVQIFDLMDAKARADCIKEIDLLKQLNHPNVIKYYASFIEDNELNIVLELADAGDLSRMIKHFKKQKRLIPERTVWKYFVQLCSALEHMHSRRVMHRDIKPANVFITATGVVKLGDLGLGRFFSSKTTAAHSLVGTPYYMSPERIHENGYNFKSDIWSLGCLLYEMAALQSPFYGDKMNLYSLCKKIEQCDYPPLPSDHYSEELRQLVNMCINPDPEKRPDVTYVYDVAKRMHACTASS

[13] = biological target: Ribosomal protein S6 kinase alpha-1 (Homo sapiens) (UniProt Q15418); conditions: Compound concentration 1000.0 nM
Chain of Ribosomal protein S6 kinase alpha-1 (Homo sapiens) (Q15418 whole entry): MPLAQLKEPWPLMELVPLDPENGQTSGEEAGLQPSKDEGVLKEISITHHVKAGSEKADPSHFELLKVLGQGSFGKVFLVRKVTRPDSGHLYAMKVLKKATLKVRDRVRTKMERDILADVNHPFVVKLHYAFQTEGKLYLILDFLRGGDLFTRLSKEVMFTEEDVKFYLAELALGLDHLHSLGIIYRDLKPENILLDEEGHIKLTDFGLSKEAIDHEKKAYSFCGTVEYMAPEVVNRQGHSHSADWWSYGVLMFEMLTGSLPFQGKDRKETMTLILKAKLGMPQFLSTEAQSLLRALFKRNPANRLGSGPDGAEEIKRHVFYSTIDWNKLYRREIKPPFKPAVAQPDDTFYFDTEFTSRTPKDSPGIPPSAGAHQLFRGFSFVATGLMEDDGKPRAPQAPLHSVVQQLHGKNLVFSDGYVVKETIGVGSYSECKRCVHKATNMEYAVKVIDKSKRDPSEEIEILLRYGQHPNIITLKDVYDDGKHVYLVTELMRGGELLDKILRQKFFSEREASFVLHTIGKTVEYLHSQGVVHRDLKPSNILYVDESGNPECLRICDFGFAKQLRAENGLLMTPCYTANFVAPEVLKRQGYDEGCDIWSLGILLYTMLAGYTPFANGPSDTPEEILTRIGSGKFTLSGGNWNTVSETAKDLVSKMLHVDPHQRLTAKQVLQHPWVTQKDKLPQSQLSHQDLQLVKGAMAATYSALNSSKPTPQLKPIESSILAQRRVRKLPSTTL

[14] = biological target: Tyrosine-protein kinase BTK (Homo sapiens) (UniProt Q06187); conditions: Compound concentration 1000.0 nM
[15] = biological target: Tyrosine-protein kinase Lyn (Homo sapiens) (UniProt P07948); conditions: Compound concentration 1000.0 nM
Chain of Tyrosine-protein kinase Lyn (Homo sapiens) (P07948 2-512 limits assumed): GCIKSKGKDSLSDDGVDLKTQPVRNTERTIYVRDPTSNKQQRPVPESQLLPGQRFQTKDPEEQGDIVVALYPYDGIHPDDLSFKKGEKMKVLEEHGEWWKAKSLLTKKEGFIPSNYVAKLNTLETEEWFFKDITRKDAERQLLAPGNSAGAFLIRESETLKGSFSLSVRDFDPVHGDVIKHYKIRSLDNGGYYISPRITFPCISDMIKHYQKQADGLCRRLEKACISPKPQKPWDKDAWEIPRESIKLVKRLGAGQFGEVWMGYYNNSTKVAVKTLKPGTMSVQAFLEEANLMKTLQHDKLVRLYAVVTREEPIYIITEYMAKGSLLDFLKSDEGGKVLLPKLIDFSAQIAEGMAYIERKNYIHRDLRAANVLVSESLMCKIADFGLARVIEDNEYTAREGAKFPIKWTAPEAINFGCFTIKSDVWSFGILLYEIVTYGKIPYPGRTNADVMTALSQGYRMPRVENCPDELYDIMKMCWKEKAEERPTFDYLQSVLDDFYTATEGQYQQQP

[16] = biological target: Vascular endothelial growth factor receptor 2 (Homo sapiens) (UniProt P35968); conditions: Compound concentration 1000.0 nM
[17] = biological target: Serine/threonine-protein kinase NLK (Homo sapiens) (UniProt Q9UBE8); conditions: Compound concentration 1000.0 nM
[18] = biological target: Serine/threonine-protein kinase pim-2 (Homo sapiens) (UniProt Q9P1W9); conditions: Compound concentration 1000.0 nM
Chain of Serine/threonine-protein kinase pim-2 (Homo sapiens) (Q9P1W9 whole entry, looked up): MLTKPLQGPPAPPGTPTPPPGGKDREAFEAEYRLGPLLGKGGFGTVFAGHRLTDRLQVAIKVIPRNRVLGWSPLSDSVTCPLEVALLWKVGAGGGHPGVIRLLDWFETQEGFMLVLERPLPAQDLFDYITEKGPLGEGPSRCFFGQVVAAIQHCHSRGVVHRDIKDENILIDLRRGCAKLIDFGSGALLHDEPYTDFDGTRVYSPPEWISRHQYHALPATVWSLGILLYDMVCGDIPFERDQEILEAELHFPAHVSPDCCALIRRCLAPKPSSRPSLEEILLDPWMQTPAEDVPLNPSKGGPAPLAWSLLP

[19] = biological target: Proto-oncogene tyrosine-protein kinase ROS (Homo sapiens) (UniProt P08922); conditions: Compound concentration 1000.0 nM
[20] = biological target: Tyrosine-protein kinase Blk (Homo sapiens) (UniProt P51451); conditions: Compound concentration 1000.0 nM
Rattus norvegicus = species on record: Rattus norvegicus; conditions: Compound concentration 10.0 uM
[21] = biological target: Serine/threonine-protein kinase STK11 (Homo sapiens) (UniProt Q15831); conditions: Compound concentration 1000.0 nM
[22] = biological target: Cyclin-dependent kinase 2 homolog (Plasmodium falciparum (isolate 3D7)) (UniProt P61075); conditions: Compound concentration 1000.0 nM
[23] = biological target: Transient receptor potential cation channel subfamily M member 6 (Homo sapiens) (UniProt Q9BX84); conditions: Compound concentration 1000.0 nM
[24] = biological target: Adrenergic receptor alpha-2 (Rattus norvegicus) (UniProt P22086+P19328+P22909); assay: ALPHA2/R Eurofins-Panlabs selectivity data (BI); format: protein assay; conditions: Compound concentration 10.0 uM
[25] = biological target: Histamine H1 receptor (Homo sapiens) (UniProt P35367); conditions: Compound concentration 10.0 uM
[26] = biological target: Mitogen-activated protein kinase 1 (Homo sapiens) (UniProt P28482); conditions: Compound concentration 1000.0 nM
[27] = biological target: Mast/stem cell growth factor receptor Kit (Homo sapiens) (UniProt P10721); conditions: Compound concentration 1000.0 nM
[28] = test system: Phosphatidylinositol 4,5-bisphosphate 3-kinase catalytic subunit alpha isoform (Homo sapiens), P42336 [I800L]; conditions: Compound concentration 1000.0 nM
[29] = biological target: Sodium-dependent serotonin transporter (Homo sapiens) (UniProt P31645); conditions: Compound concentration 10.0 uM
[30] = biological target: Cyclin-dependent kinase 17 (Homo sapiens) (UniProt Q00537); conditions: Compound concentration 1000.0 nM
[31] = test system: Epidermal growth factor receptor (Homo sapiens), P00533 [UNDEFINED MUTATION]; conditions: Compound concentration 1000.0 nM
Chain of Epidermal growth factor receptor (Homo sapiens), P00533 [UNDEFINED MUTATION] (P00533 whole entry, looked up, change not shown): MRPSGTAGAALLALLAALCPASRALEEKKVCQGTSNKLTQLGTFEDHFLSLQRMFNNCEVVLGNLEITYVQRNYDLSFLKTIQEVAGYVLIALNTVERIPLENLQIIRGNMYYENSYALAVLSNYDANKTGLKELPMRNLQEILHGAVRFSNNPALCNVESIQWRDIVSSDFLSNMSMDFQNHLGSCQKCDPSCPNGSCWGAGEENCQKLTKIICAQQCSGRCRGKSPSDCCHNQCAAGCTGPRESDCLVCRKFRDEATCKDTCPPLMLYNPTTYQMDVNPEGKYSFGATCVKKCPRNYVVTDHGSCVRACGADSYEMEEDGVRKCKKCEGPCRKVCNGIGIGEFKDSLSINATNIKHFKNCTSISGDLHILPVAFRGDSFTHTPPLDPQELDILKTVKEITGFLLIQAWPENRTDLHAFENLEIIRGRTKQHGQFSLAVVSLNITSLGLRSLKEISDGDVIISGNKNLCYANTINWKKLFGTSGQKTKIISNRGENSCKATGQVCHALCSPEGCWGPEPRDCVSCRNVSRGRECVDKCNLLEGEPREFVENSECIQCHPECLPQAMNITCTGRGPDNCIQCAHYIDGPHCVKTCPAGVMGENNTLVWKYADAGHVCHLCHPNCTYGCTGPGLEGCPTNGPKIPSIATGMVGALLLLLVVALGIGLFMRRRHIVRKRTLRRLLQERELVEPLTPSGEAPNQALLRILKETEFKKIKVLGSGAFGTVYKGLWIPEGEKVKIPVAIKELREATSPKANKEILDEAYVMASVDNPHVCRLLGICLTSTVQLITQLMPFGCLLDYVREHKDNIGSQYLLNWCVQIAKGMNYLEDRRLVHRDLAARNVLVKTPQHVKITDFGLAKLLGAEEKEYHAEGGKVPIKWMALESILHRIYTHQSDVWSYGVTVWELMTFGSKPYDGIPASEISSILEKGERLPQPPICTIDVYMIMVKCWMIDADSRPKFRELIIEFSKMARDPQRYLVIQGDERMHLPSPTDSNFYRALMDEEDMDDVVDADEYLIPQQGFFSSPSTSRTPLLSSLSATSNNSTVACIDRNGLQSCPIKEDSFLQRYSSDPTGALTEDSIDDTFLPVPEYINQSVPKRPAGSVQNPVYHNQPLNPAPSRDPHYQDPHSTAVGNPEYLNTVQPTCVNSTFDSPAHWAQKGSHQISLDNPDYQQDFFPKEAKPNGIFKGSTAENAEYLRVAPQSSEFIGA

[32] = biological target: Alpha-2B adrenergic receptor (Homo sapiens) (UniProt P18089); conditions: Compound concentration 10.0 uM
[33] = biological target: Mitogen-activated protein kinase kinase kinase kinase 4 (Homo sapiens) (UniProt O95819); conditions: Compound concentration 1000.0 nM
[34] = biological target: Histamine H2 receptor (Homo sapiens) (UniProt P25021); assay: H2/H Eurofins-Panlabs selectivity data (BI); conditions: Compound concentration 10.0 uM
[35] = biological target: GABA-A receptor; anion channel (Rattus norvegicus) (UniProt O09028+P15431+P18506+P18508+P19969+P20236+P23574+P23576+P28471+P28473+P30191+P62813+P63079+P63138+Q91ZM7+Q9ES14); conditions: Compound concentration 10.0 uM
[36] = biological target: Hepatocyte growth factor receptor (Homo sapiens) (UniProt P08581); conditions: Compound concentration 1000.0 nM
[37] = biological target: Tyrosine-protein kinase Yes (Homo sapiens) (UniProt P07947); conditions: Compound concentration 1000.0 nM
[38] = biological target: Tyrosine-protein kinase CSK (Homo sapiens) (UniProt P41240); conditions: Compound concentration 1000.0 nM
Chain of Tyrosine-protein kinase CSK (Homo sapiens) (P41240 2-450 limits assumed): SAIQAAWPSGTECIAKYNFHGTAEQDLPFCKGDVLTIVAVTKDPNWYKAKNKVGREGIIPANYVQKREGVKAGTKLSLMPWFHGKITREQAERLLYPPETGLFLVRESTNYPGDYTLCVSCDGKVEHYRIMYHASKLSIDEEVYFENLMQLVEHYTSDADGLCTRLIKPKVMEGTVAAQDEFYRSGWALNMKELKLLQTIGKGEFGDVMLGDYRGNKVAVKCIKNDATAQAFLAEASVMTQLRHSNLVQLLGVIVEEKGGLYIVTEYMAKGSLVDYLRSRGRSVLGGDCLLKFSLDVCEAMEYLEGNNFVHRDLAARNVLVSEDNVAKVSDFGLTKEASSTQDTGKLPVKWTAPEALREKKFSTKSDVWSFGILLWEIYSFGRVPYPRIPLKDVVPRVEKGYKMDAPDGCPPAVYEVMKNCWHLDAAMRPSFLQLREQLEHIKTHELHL

[39] = biological target: Aurora kinase C (Homo sapiens) (UniProt Q9UQB9); conditions: Compound concentration 1000.0 nM
Chain of Aurora kinase C (Homo sapiens) (Q9UQB9 whole entry): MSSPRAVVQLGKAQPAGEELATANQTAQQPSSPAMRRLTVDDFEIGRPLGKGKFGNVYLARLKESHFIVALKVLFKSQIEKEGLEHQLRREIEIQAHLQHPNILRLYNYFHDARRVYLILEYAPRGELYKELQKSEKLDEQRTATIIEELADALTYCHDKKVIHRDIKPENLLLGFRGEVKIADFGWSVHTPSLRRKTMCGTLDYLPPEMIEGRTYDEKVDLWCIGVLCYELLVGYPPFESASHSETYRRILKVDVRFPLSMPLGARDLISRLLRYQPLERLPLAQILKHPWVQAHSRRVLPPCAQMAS

[40] = biological target: Serine/threonine-protein kinase Nek1 (Homo sapiens) (UniProt Q96PY6); conditions: Compound concentration 1000.0 nM
[41] = biological target: Leucine-rich repeat serine/threonine-protein kinase 2 (Homo sapiens) (UniProt Q5S007); conditions: Compound concentration 1000.0 nM
[42] = test system: Mast/stem cell growth factor receptor Kit (Homo sapiens), P10721 [V559D,T670I]; conditions: Compound concentration 1000.0 nM
[43] = biological target: Rho-associated protein kinase 1 (Homo sapiens) (UniProt Q13464); conditions: Compound concentration 1000.0 nM

Chain of Homeodomain-interacting protein kinase 3 (Homo sapiens) (Q9H422 whole entry, looked up): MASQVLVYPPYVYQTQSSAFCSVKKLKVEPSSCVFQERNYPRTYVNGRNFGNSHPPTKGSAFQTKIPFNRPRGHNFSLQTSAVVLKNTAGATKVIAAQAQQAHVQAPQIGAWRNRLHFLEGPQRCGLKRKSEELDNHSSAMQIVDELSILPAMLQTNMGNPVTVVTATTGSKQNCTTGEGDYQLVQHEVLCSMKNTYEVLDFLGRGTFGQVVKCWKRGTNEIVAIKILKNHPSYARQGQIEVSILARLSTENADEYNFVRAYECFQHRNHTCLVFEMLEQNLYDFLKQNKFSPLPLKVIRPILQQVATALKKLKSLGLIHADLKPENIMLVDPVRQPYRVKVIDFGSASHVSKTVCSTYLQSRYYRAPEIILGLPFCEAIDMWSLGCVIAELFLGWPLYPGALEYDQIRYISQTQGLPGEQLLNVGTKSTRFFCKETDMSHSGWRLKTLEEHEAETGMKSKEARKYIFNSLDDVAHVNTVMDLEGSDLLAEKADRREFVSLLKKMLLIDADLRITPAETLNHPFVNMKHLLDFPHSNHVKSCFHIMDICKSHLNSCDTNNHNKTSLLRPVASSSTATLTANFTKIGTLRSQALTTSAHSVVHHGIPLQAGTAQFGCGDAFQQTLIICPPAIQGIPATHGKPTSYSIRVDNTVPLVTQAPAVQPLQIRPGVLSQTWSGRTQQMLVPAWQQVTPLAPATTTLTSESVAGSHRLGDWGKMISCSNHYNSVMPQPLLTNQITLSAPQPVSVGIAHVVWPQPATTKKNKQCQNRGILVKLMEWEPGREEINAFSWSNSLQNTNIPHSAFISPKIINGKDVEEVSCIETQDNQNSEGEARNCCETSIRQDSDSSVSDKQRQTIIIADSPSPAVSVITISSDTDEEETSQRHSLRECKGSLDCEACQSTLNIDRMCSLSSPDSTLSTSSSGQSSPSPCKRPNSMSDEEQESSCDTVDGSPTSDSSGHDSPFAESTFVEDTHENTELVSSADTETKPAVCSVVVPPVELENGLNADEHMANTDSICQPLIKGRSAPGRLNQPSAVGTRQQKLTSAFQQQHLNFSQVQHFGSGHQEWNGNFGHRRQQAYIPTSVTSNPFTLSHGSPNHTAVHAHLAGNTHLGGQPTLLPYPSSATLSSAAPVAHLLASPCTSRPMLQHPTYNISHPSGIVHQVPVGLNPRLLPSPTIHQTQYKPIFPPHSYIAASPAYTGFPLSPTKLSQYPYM

For `CCOCCn1cc(C(=O)Nc2ccc(-n3nc(-c4cccnc4)cc3C(F)(F)F)cn2)ccc1=O` [BI 1935], the residual activity [1] was 97%, the residual activity [2] was 76% and the residual activity [3] was 77%. It also gave a residual activity [4] of 81%, a residual activity [5] of 65% and a residual activity [6] of 100%. The residual activity [7] was 85%, the residual activity [8] was 81% and the residual activity [9] was 98%. The residual activity [10] was 100%, the inhibition [11] was 3.75% and the residual activity [12] was 100%. For the same molecule, the residual activity [13] was 99%, the residual activity [14] was 79% and the residual activity [15] was 81%. It also gave a residual activity [16] of 81%, a residual activity [17] of 47% and a residual activity [18] of 100%. For the same molecule, the residual activity [19] was 100%, the residual activity [20] was 89% and the inhibition (Rattus norvegicus) was -5.52%. The residual activity [21] was 89%, the residual activity [22] was 86% and the residual activity [23] was 73%. For the same molecule, the residual activity [24] was 91%, the inhibition [25] was 12.2% and the residual activity [26] was 100%. It also gave a residual activity [27] of 100%, a residual activity [28] of 71% and an inhibition [29] of 8.63%. It also gave a residual activity [30] of 96%, a residual activity [31] of 98% and an inhibition [32] of 4.9%. It also gave a residual activity [33] of 91%, a residual activity [34] of 106% and an inhibition [35] of 34.3%. For the same molecule, the residual activity [36] was 95%, the residual activity [37] was 85% and the residual activity [38] was 100%. It also gave a residual activity [39] of 88%, a residual activity [40] of 100% and a residual activity [41] of 100%. For the same molecule, the residual activity [42] was 100% and the residual activity [43] was 74%.
